Read-outs that look alike come from different tables or passages of the source.
Legend:
[1] = Binding to human plasma protein by rapid equilibrium dialysis; type: in vitro ADME; details: 1 μg mL^−1
Procedure: Binding to plasma proteins, brain homogenates or proteins in serum-fortified HMI-9 media was determined by rapid equilibrium dialysis (RED) (Pierce, Rockford, IL) using a 48-well plate-based format according to the manufacturer's instructions. Briefly, test compound was added to fresh plasma (Bioreclamation, Liverpool, NY) at the required concentrations, freshly prepared brain homogenate or media. Duplicate aliquots of each sample were transferred into the sample chambers of the RED devices, and dialysis buffer (BupH PBS) was added to the buffer chambers. The plates were sealed and incubated at 37 °C for 4 h. After dialysis, samples collected from the buffer and tissue chambers were treated with ice-cold methanol (3 volumes for plasma or HMI-9 media, 4 volumes for brain) to precipitate proteins. The treated samples were centrifuged for 10 min at approximately 3000 g at 15 °C. The supernatants were assayed for test compound by LC-MSMS. Calibration standards and quality control samples were prepared in matched matrix and assayed with samples. Values for unbound and bound fractions and mass balance were calculated. Concordance of binding for each batch of plasma was confirmed by assay of warfarin, imipramine and carbamezapine. Acceptance criterion for mass balance was 70–120%.

[2] = Single oral dose pharmacokinetics and CNS penetration in male CD-1 mice; type: in vivo, mouse
Procedure: The CNS disposition and pharmacokinetics of the benzoxaboroles were evaluated in infected and uninfected mice following oral administration. In vivo phases of single-dose rodent PK studies were performed at Vivisource (Waltham, MA) following Institutional Animal Care and Use Committee (IACUC) review in an Association for Assessment and Accreditation of Laboratory Animal Care International (AAALAC)-approved facility. Studies in Trypanosoma brucei brucei (TREU 667 strain) infected mice, or uninfected satellite animals, were performed after IACUC review at Pace University (NewYork, NY).
Male CD-1 or female Swiss Webster mice (approximately 25 g) were administered test compounds by oral gavage either once (QD) or twice per day (Q12 h) with doses ranging between 6 and 100 mg kg^−1 as described below. All compounds were formulated as an in situ sodium salt in 2% (v/v) ethanol, 5% (m/v) dextrose, to yield typically clear colourless solutions that were administered at 4 mL kg^−1. Blood samples for pharmacokinetic studies were collected into polypropylene tubes containing K2EDTA anticoagulant and stored on wet ice until centrifuged and processed to plasma. Plasma was stored at −80 °C. Blood samples from mice were collected via cardiac puncture under terminal anaesthesia. Rodents were euthanized in a CO2 chamber before collection of terminal blood or tissue samples. Brain tissues were blotted dry and stored at approximately −80 °C.
Plasma (50 μL) was treated with 4 volumes of ice-cold methanol (containing 25 ng mL^−1 of either deuterium (d6)-labelled SCYX-7158 internal standard (SCYX-5232) for SCYX-7158 analyses or a related benzoxaborole for other compounds) to precipitate proteins. Treated samples were gently mixed on a 96-well plate shaker for approximately 10 min then centrifuged at approximately 3000 g and 15 °C for 15 min. Supernatants were transferred to fresh 96-well plates for analysis by means of LC-MSMS. Samples of tissue homogenate (50 μL), or buffer from protein binding studies, were treated similarly to plasma samples.
All biological samples were assayed by a verified LC-MSMS method employing two dimensional chromatographic separation to overcome ion suppression (Annesely, [2003]) caused by co-elution of endogenous components with benzoxaboroles. In summary, treated samples were loaded onto Phenomenex (Torrance, CA) Synergi Polar RP, 4 μ, 50×2 mm extraction columns and subsequently back-eluted onto a Phenomenex Luna C8(2) 3 μ, 50×2 mm analytical columns protected by a Phenomenex C8 guard cartridge. Mobile phases for extraction and analytical columns consisted of 5 mM ammonium formate and 0·1% (v/v) formic acid in water (A), and 5 mM ammonium formate and 0·1% (v/v) formic acid in methanol (B). […]

P-gp (human MDR1) = assay: MDCKII-hMDR1 monolayer permeability and Pgp-mediated efflux; type: in vitro ADME; details: dog, 3 μM
Procedure: (§1) The propensity of test compounds to cross the BBB was examined using an in vitro MDCKII-hMDR1 monolayer assay (Polli et al. [2001]). In summary, MDCKII-hMDR1 cells (Netherlands Cancer Institute, Amsterdam, the Netherlands) were seeded at a density of 3×10^5 cells per well onto microporous polycarbonate membranes in 12 well Costar Transwell plates (Corning Inc., Lowell, MA). The cells were incubated for 3 days during which time they formed confluent monolayers. Trans-epithelial resistance (TEER) was measured for each insert to ensure the integrity of the monolayer (acceptable TEER >160 Ω cm^2). The permeability and susceptibility for Pgp-mediated efflux was evaluated by adding each compound at a concentration of 3 μM, in the presence or absence of 2 μM GF120918 (a potent Pgp inhibitor), to the apical compartment. Competency of the Pgp efflux transporter was confirmed by assay of propranolol (non-substrate) and amprenavir (substrate). Cell monolayers were incubated in triplicate with shaking (160 rpm) at 37 °C in a 5% CO2-enriched humidified atmosphere for 1 h. Samples were removed from the apical and basolateral compartments after incubation and assayed for test compound concentrations by LC-MSMS. Values for mass balance, PappA−B, PappA−B+GF918, and absorption quotient (AQ) were calculated for each compound (Troutman and Thakker, [2003]; Thiel-Demby et al. [2004]). Acceptance criterion for mass balance was 70–120%.

[3] = system: MDCKII-hMDR1 monolayer (Pgp efflux transporter); assay: as above; type: in vitro ADME; details: for Mass balance A–B+GF918 / Mass balance A–B: 3 μM; for Mass balance A–B+GF918: with GF918; for Mass balance A–B: without GF918
Procedure: as §1

L929 mammalian cell line = assay: L929 mammalian cell cytotoxicity / selectivity; type: cell-based; details: parasite vs L929
T. b. brucei (TREU 667) = assay: Murine model of Stage 2 (CNS) HAT; type: in vivo, mouse; details: oral administration
Procedure: The efficacy of benzoxaboroles was evaluated in a murine model of Stage 2 (CNS) HAT (Nare et al. [2010]; Jacobs et al. [2011]). In summary, mice (n = 10 per group) were infected by bolus i.p. injection of 1×10^4 T. b. brucei (TREU 667) parasites. A single bolus i.p. dose (10 mg kg^-1) of berenil (Sigma-Aldrich, St. Louis, MO) was administered on day 4 as a positive treatment control for haemolymphatic-stage infection. Infection of the remaining animals proceeded for 21 days to establish a CNS infection before treatment with either a single dose of berenil (as above) or test compounds by the oral route either once or twice daily over 7 days at the doses indicated below. Animals were checked at least weekly for parasitaemia and were immediately removed from cages and euthanized upon recrudescence. Animals were considered cured if they were […] for at least 180 days after treatment.

[4] = design: method as in Milford et al. [1993]; details: human patients; ref Milford et al. [1993]; cited from earlier work
T. brucei = details: cited from earlier work
[5] = design: method as in Sanderson et al. [2008]; details: mice; ref Sanderson et al. [2008]; cited from earlier work
[6] = cited from earlier work
[7] = intravenous 2·2–3·6 mg kg^−1, uninfected vervet monkeys; ref Burri et al. [1994]; cited from earlier work
[8] = human patients, 24 h after last injection of multi-day regimen; ref Burri and Keiser, [2001]; cited from earlier work
T. b. brucei = assay: Serum-shift assay (effect of foetal calf serum on trypanocidal IC50); type: cell-based, Trypanosoma brucei brucei; details: 72 h, relative to 2·5% serum
Procedure: To assess the potential effects of protein binding on trypanocidal activity, parasite viability assays were performed in the presence of increasing concentrations (2·5–50%) of foetal calf serum (Invitrogen, Carlsbad, CA) in HMI-9 media. T. b. brucei parasites were conditioned to the test serum concentrations for at least one round of passage prior to assay. Test compounds were added, incubated for 72 h, signal measured and IC50 determinations were conducted as described above using the resazurin endpoint. The fold change in IC50 from minimal serum concentration to maximal serum concentration was calculated and used to compare compounds and their potential for being restrictively protein bound.

[9] = MDCK-MDR1, with GF120918 2 μM, with 2 μM GF120918, read-out: Papp, A–B direction+GF918
[10] = MDCK-MDR1, read-out: Papp, A–B direction

SMILES	Mass balance [1] [%]	time CNS (brain) total concentration above MIC [2]	Papp A→B at 1 h, 3 μM (P-gp (human MDR1); [9]) [×10⁻⁶ cm/s]	Papp A→B at 1 h, 3 μM (P-gp (human MDR1); [10]) [×10⁻⁶ cm/s]	P-gp classification [3]	Mass balance A–B+GF918 [3] [%]	Mass balance A–B [3] [%]	Selectivity (L929 mammalian cell line)	further results
NCCCC(N)(C(=O)O)C(F)F (stereo not shown) [eflornithine]									CSF level at steady state [4]: 5 to 150 nM; in vitro MIC (T. brucei; ref Sanderson et al. [2008]): ca. 50 μM; maximum concentration (CNS exposure) [5]: 10 to 40 nM
Nc1nc(N)nc(Nc2ccc([As]3SCC(CO)S3)cc2)n1 (stereo not shown) [melarsoprol]									drug-induced death, patients ([6]; Stage 2 HAT patients, ref Schmid et al. [2004], Doua et al. [2005], Kuepfer et al. [2012]): 2–10%; failure rate with treatment ([6]; ref Legros et al. [1999]): 3–30%; maximum concentration in CSF [7]: ~50 ng/mL; in vitro MIC (T. brucei; ref Burri et al. [1994]): 2 to 100 ng/mL; CSF concentration [8]: 39 to 79 ng/mL
Cc1ccc(C(=O)Nc2ccc(S(=O)(=O)O)c3cc(S(=O)(=O)O)cc(S(=O)(=O)O)c23)cc1NC(=O)c1cccc(NC(=O)Nc2cccc(C(=O)Nc3cc(C(=O)Nc4ccc(S(=O)(=O)O)c5cc(S(=O)(=O)O)cc(S(=O)(=O)O)c45)ccc3C)c2)c1 [suramin]									fold change in IC50 between 2·5 and 50% calf serum (T. b. brucei): 26 fold

Now from value to compound, other results behind:

Mass balance [1] [%]	time CNS (brain) total concentration above MIC [2]	Papp A→B at 1 h, 3 μM (P-gp (human MDR1); [9]) [×10⁻⁶ cm/s]	Papp A→B at 1 h, 3 μM (P-gp (human MDR1); [10]) [×10⁻⁶ cm/s]	P-gp classification [3]	Mass balance A–B+GF918 [3] [%]	Mass balance A–B [3] [%]	SMILES	Selectivity (L929 mammalian cell line)	further results
106	1 h	46.5	43.8	Non-substrate	99	94	[O-][S+](c1ccc(Cl)cc1)c1ccc2c(c1)B(O)OC2 (stereo not shown) [AN2920]	⩾49	time plasma concentration maintained above MIC ([2]; total concentration): approximately 7 h
110		43.4	42.4	Non-substrate	90	92	O=C(Nc1ccc2c(c1)B(O)OC2)c1ccccc1C(F)(F)F [AN3520]	⩾94	
97	approximately 10 h	38.6	37.9	Non-substrate	95	89	O=C(Nc1ccc2c(c1)B(O)OC2)c1ccc(F)cc1C(F)(F)F [SCYX-6759]	⩾136	cures in the CNS (Stage 2) murine model (T. b. brucei (TREU 667)): 100%

— paper PMC3884839, “Pharmacokinetics and pharmacodynamics utilizing unbound target tissue exposure as part of a disposition-based rationale for lead optimization of benzoxaboroles in the treatment of Stage 2 Human African Trypanosomiasis” (Parasitology, 2013)
